In general, pEC50 refers to −log10 of the EC50, conventionally taken in molar units. By inhibition is commonly meant the percentage by which the read-out fell short of the control. One may read the hepatocyte CLint as a measure of how fast metabolising enzymes remove a compound, apart from limits set by blood flow. Read a low hepatocyte CLint as slow turnover.

pEC50: −log10 of the molar value.

The target of one data set is T1, dopamine D1 receptor (Homo sapiens, UniProt P21728).
T1 construct: host or cells: LMtk (Ltk-) mouse fibroblast cells
Kind of data set: cAMP HTRF potentiation assay (in the presence of EC20 dopamine). Type of data set: cell-based. As to conditions: for pEC50: potentiation of cAMP levels with EC20 dopamine (1.1 nM), LMtk (Ltk-) mouse fibroblast cells expressing the dopamine D1 receptor; for Emax: with EC20 dopamine, dopamine maximum = 100%, read-out: Erel (relative efficacy, maximal % potentiation relative to dopamine maximal response). The source says:
Assays have been designed to measure the effects of compounds in accordance with the present invention in the absence of dopamine (“activation assay”) and in the presence of dopamine (“potentiation assay”).
The potentiation assay measures the ability of compounds to increase the levels of cAMP produced by a low-threshold concentration of dopamine. The concentration of dopamine used ([EC20]) is designed to produce 20% stimulation compared to the maximal response (100%) seen with increasing the concentration of dopamine. To measure this potentiation increasing concentrations of the compound with the [EC20] of dopamine are incubated and the potentiation is measured as increases in cAMP production and concentration of compound which produces 50% of the potentiation of the cAMP levels is measured.
• a. METHODS D1 Cell Culture Cells were cultured at 37° C. in a humidified atmosphere of 5% CO2. Cells were grown in DMEM-F12+GlutaMAX™-I medium (GIBCO®, Invitrogen, Merelbeke, Belgium) containing 10% fetal bovine serum (BioWhittaker®, Lonza, Verviers, Belgium), 400 μg/mL Geneticin (GIBCO®), 100 IU/mL Penicillin and 100 IU/mL Streptomycin (Pen-Strep solution, BioWhittaker®). […] Using homogenous time-resolved fluoresence technology, the assay is based on competition between native cAMP produced by cells and cAMP labelled with the dye d2. The tracer binding is determined by an anti-cAMP antibody labeled with cryptate. The effects of the compound alone (agonism) was determined by performing the assay in the absence of dopamine, whilst the effect of the compound as a positive allosteric modulator (PAM) was determined in the presence of an EC20 concentration of dopamine. Cells (20,000 per well) are incubated in 384 plates for 1 hour at room temperature in a final volume of 20 μL HBSS (Lonza, with calcium, magnesium and HEPES buffer 20 mM, pH 7.4) containing: isobutyl methylxanthine (Sigma, 0.1 mM final), varying concentrations of test compound (typically 10^−9.5M to 10^−4.5M) in the presence and absence of dopamine (1.1 nM final). The reaction is then terminated and the cells lysed by adding the d2 detection reagent in lysis buffer (10 microL) and the cryptate reagent in lysis buffer (10 microl) according to manufacturer's instructions. This is then incubated for a further 60 min at room temperature and changes in HTRF fluorescent emission ratio determined according to manufacturer's instructions using an Envision plate reader (Perkin Elmer, Zaventem, Belgium) with laser excitation. All incubations were performed in duplicate and results were compared to a concentration-effect curve to dopamine. (10^−11M to 10^−6M). • c. […]

The target of data set [1] is T2, human GABAA (α1β2γ2) channels (Homo sapiens, UniProt P14867+P18507+P47870).
T2 construct: expressed in transfected cells; host or cells: CHO-K1 cells
Kind of data set: Automated patch clamp studies on the GABAA receptor (IonFlux HT, CHO-K1 cells). The class given is cell-based. As to conditions: compound at 10 μM, GABA 15 μM as agonist, read-out: percentage of inhibition of the GABAA receptor. On the technique in general: The patch-clamp technique gives a direct electrical read-out from membranes.

The next data set deals with T3, CYP3A4 (Homo sapiens, UniProt P08684).
T3 construct: cryopreserved human microsomes (pooled donors) are divided on a 48 well collagen coated plate; from tissue; host or cells: cryopreserved human microsomes (pooled donors)
In words: In vitro assessment of CYP3A4 inhibition potential using cryopreserved human microsomes (midazolam substrate). The class given is in vitro ADME. As to conditions: cryopreserved human microsomes (pooled donors), probe midazolam 2.5 μM, read-out: percentage of inhibition of CYP3A4. As for the experimental part: The objective of the human microsome assay is to characterize the inhibition potential of Compound of formula (I) by measuring the CYP3A4 activities after its co-incubation with midazolam, a specific CYP3A4 substrate.
To this aim, cryopreserved human microsomes (pooled donors) are divided on a 48 well collagen coated plate so that the final concentration is 0.25 mg/ml. The UCB compound is then added in the wells at 1 μM and 20 μM concentration in duplicate. After 30 minutes incubation, midazolam is added at 2.5 μM concentration. After 15 minutes, an aliquot is removed and placed into an equal volume of methanol containing internal standard. The samples are centrifuged at 2500 rpm at 4° C. for 20 min. An aliquot of supernatant is diluted with deionised water and levels of 1-hydroxymidazolam is quantified using generic LC MS/MS methods. The concentrations are compared to those obtained after midazolam incubation at the same concentration but without UCB compound pre-incubation. The results are expressed as % of inhibition. […] Azamulin Assay Cryopreserved human hepatocytes (pool of 20 donors, BSU batch from Celsis/IVT/Bioreclamation) were thawed accordingly the provider's information. Viability (trypan blue exclusion) was higher than 75%. […]

Data set [2] is described as follows: Intrinsic clearance in cryopreserved human hepatocyte suspension (Azamulin Assay). The class given is in vitro ADME. As for the experimental part: The clearance is generally evaluated by using hepatocyte incubations and scaling calculations, assuming the main elimination pathway is metabolism, according to protocols described herein. The intrinsic clearance evaluated from hepatocytes is expressed in μl/min/10^6 cells.
To this aim, cryopreserved human microsomes (pooled donors) are divided on a 48 well collagen coated plate so that the final concentration is 0.25 mg/ml. The UCB compound is then added in the wells at 1 μM and 20 μM concentration in duplicate. After 30 minutes incubation, midazolam is added at 2.5 μM concentration. After 15 minutes, an aliquot is removed and placed into an equal volume of methanol containing internal standard. The samples are centrifuged at 2500 rpm at 4° C. for 20 min. An aliquot of supernatant is diluted with deionised water and levels of 1-hydroxymidazolam is quantified using generic LC MS/MS methods. The concentrations are compared to those obtained after midazolam incubation at the same concentration but without UCB compound pre-incubation. The results are expressed as % of inhibition. […]
Samples are analyzed by LC-MS-MS bioanalytical method to measure the concentration of UCB compound. The concentration versus time profile is fitted to determine the intrinsic clearance (Clint) expressed as μl/min/10^6 cells.

T1 sequence (P21728 whole entry, species assumed): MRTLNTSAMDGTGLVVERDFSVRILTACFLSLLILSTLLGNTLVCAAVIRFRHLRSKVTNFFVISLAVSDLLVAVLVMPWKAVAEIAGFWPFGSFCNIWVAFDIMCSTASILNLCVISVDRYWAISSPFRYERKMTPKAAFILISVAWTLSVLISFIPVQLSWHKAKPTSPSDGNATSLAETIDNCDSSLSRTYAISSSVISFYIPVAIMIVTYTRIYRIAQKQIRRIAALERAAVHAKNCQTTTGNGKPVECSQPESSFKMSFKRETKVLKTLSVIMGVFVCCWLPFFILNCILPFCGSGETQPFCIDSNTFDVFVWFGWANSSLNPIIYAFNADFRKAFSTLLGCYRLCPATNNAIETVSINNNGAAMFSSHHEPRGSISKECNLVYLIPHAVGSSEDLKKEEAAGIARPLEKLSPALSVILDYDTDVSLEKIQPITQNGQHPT
T2 sequence (P14867 28-456): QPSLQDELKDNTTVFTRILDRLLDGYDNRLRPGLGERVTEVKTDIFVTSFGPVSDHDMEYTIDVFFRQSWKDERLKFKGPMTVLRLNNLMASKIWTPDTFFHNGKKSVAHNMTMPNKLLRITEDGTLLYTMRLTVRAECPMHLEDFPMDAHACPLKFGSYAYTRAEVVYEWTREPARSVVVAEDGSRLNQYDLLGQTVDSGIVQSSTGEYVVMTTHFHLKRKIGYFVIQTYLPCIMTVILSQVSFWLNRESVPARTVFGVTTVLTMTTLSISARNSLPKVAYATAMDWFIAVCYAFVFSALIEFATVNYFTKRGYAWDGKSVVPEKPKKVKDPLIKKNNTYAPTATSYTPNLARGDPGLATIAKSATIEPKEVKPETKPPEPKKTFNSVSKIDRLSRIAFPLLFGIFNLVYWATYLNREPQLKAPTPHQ
T2 sequence (P47870 25-512 limits assumed): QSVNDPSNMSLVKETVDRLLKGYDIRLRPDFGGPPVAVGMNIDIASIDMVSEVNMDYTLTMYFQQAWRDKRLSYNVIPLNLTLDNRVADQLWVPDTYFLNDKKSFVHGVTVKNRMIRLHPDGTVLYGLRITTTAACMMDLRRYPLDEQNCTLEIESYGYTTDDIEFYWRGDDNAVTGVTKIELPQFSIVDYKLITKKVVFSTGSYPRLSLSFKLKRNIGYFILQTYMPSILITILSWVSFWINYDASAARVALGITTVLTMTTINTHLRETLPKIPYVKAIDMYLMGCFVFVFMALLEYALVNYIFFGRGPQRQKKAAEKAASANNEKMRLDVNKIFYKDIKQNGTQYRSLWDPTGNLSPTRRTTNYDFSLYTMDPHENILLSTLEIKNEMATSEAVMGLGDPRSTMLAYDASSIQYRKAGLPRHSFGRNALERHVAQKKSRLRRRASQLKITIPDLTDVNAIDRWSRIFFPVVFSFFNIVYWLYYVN
T2 sequence (P18507 40-475): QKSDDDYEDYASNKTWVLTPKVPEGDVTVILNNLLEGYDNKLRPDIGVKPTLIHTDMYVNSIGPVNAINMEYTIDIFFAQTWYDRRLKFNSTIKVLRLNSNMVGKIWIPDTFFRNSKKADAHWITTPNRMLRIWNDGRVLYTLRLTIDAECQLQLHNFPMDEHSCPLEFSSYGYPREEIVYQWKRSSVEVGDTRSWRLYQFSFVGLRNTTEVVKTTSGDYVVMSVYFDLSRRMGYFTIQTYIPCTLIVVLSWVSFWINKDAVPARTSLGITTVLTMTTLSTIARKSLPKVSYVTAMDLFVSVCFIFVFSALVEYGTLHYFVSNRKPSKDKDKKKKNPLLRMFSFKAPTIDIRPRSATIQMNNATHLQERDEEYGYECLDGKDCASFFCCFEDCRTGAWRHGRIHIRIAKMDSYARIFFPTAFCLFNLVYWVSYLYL
T3 sequence (P08684 whole entry): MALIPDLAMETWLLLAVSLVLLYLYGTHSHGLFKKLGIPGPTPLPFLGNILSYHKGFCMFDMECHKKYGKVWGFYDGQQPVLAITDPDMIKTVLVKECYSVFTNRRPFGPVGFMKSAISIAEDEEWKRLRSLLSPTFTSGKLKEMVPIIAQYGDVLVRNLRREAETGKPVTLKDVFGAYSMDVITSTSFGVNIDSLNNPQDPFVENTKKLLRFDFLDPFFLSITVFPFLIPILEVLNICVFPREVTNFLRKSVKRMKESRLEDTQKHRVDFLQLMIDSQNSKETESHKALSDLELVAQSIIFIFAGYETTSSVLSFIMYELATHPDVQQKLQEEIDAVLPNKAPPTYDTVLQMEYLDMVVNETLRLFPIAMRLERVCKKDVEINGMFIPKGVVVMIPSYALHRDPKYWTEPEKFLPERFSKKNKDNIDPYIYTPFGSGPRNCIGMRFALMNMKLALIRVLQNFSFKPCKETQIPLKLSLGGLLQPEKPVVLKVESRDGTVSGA

For `C[C@H]1c2cccc([C@](C)(O)CF)c2CCN1C(=O)Cc1c(Cl)cnc(CO)c1Cl` [compound of formula (Ia), 2-[3,5-dichloro-2-(hydroxymethyl)-4-pyridyl]-1-[(1S)-5-[(1S)-2-fluoro-1-hydroxy-1-methyl-ethyl]-1-methyl-3,4-dihydro-1H-isoquinolin-2-yl]ethanone], on dopamine D1 receptor, the pEC50 was ~6.90 and the Emax was ~64%. Besides, the inhibition at 10 µM in data set [1] was ~13%. For the same compound, the inhibition at 15 min, 1 μM at CYP3A4 (compound at 1 μM) was ~20%. Moreover, the inhibition at 15 min, 20 μM at CYP3A4 (compound at 20 μM) is ~28%. The intrinsic metabolic clearance (hepatocyte CLint) at 0.5 μM in data set [2] is ~8.8 µL/min/1e6 cells.

Regarding `CC1c2cccc(C(C)(O)CF)c2CCN1C(=O)Cc1c(Cl)cnc(CO)c1Cl` (stereo not shown) [(Ib)], on dopamine D1 receptor, the pEC50 is ~6.70 and the Emax was ~61%. For the same compound, in data set [1], the inhibition at 10 µM is ~20%. In addition, in data set [2], the hepatocyte CLint at 0.5 μM was ~9.2 µL/min/1e6 cells.

These data come from patent US12358890B2, “Substituted tetrahydroisoquinoline derivative as a D1 positive allosteric modulator” (UCB Biopharma SRL, priority 2019, dated 2025).
